Measurements published in US20190225651A1, “COMPOUNDS FOR INDUCING TISSUE FORMATION AND USES THEREOF” (HISTIDE AG, priority 2015, published 2019).
Blank lines part the entries; values can stand above or below the substance they belong to. Ends that are not written are not given here.

What was measured:
[1] = tested on: hMSCs; assay: Loss of stemness, STRO-1 immunostaining; assay type: cell-based, human; details: compound in solution in cell culture media
Method: (§1) The cells were first fixed for 20 min with 4% paraformaldehyde/PBS at 4° C. After fixation, the cells were permeabilized in PBS containing 1% Triton X-100 for 15 min. Runx2, Osterix, Stro-1, Vinculin, Phalloidin, Osteopontin, Sox2, Sox9 antibodies were visualized by treating the cells with 1% (v/v) specific monoclonal antibodies for 1 hour at 37° C. Then the samples were incubated with Alexa Fluor® 568 or 647 (F(ab′)2 fragment of IgG(H+L)) during 30 min at room temperature. The cell nuclei were counterstained in 20 ng/mL DAPI for 10 min at room temperature.
For this type of quantification the freeware image analysis ImageJ® software was used. The raw image was first converted to an 8-bit file, and then the unsharp mask feature was used (settings 1:0.2) to remove the image background (rolling ball radius 10). After smoothing, the resulting image, which appears similar to the original photomicrograph but with minimal background, was then converted to a binary image by setting a threshold. Threshold values were determined empirically by selecting a setting, which gave the most accurate binary image for a subset of randomly selected photomicrographs. The cell area was determined by manual delineation on raw fluorescent images. Total contact area and mean contact area per cell were calculated by “analyse particules” in ImageJ®. A minimum of […] per condition were analyzed. Stro-1 expression was determined using this procedure.
hMSCs were cultured on conventional cell culture plastic plates with and without the presence in the cell culture media of different GFR-binding compounds as defined hereins (SEQ ID NO: 39 to 45) in solution. […] This was probed by Stro-1 immunostaining after cell fixation as described in the Methods section. The quantification of Stro-1 positive contact numbers and areas was performed as described in the Methods section. A minimum of 30 cells per condition were analyzed. One should note that it is commonly admitted that the expression of STRO-1 in a cell is indicative of a cell that is in a substantially non-differentiated state and the decrease of its expression of at least about 20% is indicative of a cell that has started a processus of differentiation but which may not result in the differentiation of the cell. A decrease of more than 50% would be indicative of the presence of a significant shift towards a differentiated state. A decrease of more than 70% would be indicative of the presence of a very important shift towards a differentiated state. A sustained decrease (e.g. for at least 96 h) of more than 50% or 70% would be indicative of the presence of an even more important shift towards a differentiated state.
Likewise, hMSCs were cultured on conventional cell culture plastic plates with and without the presence in the cell culture media of different GFR-binding compounds as defined herein (SEQ ID NO: 1581 to 1606) in solution. […] This strong decrease was also confirmed after 96 h.

[2] = Stability of non-covalent peptide coating on apatite ceramics (FITC fluorescence); assay type: physicochemical; details: peptide bound to FITC, coated on apatite ceramics; 3, 7 or 10 days
Method: (§2) Non-covalent modifications of the materials were performed in Air Atmosphere at room temperature. The non-covalent coating strategy consisted in using a mixture of inducing peptide (SEQ ID NO: 9; concentration of 1×10^−3M) with an apatite ceramics implant or a mixture of inducing peptide (SEQ ID NO: 10; concentration of 1×10^−3M) with a type-I collagen sponge. The non-covalently coated conventional materials were characterized by using fluorescent peptides (Here SEQ ID NO: 9 and 10 covalently bound to fluorescein isothiocyanate (FITC), FIG. 3). The results shown here in FIG. 3 were obtained from experiments performed with apatite ceramics and a type-I collagen sponge. […] Indeed, after 3, 7 or 10 days, the osteogenic peptides were still coated to the ceramics or the type-I collagen (FIG. 4). The biomaterial surface was characterized by X-ray photoelectron spectroscopy (Table 1). The X-ray photoelectron spectroscopy was performed as described in the Methods section.

[3] = Stability of non-covalent peptide coating on type-I collagen sponge (FITC fluorescence); assay type: physicochemical; details: peptide bound to FITC, mixed with type-I collagen sponge; 3, 7 or 10 days
Method: as §2

[4] = tested on: osteoblast progenitors; assay: Osteogenic differentiation of osteoblast progenitors on peptide-coated materials (Osteopontin staining, Runx2 Q-PCR); assay type: cell-based; details: for differentiation into mature osteoblasts: 48 hours on coated apatite ceramics or type-I collagen sponge; for production of extracellular matrix proteins such as Osteopontin (OPN): versus native type-I collagen sponge or native apatite ceramics
Method: as §1
(§3) Total RNA was extracted by using the RNeasy total RNA kit (Qiagen®) according to the manufacturer's instructions. Purified total RNA was used as a template in order to make cDNA by a reverse transcription reaction (Gibco BrI®) with random primers (Invitrogen®). The cDNA was then used as a template for a real-time PCR amplification in the presence of SYBR green reagents (Bio-Rad®) by using a thermocycler (iCycler, Biorad®). Data were analyzed with the iCycler IQ™® software and compared by the ΔΔCt method. Briefly, the mean Ct value of the target gene was normalized to its averaged Ct values of the housekeeping gene (HPRT) to give a ΔCt value, which was then normalized to a control sample to obtain a ΔΔCt value. The results were obtained from two series of experiments performed in a triplicate.
The effect of these GFR-binding compounds as defined herein (SEQ ID NO: 19 and 20) on the differentiation of osteoblast progenitors was evaluated. These osteoblast progenitors were seeded onto the apatite ceramics or on type-I collagen sponge that were both coated with osteogenic peptides. […] This was seen from Osteopentin immunofluorescence staining after cell fixation as described in the Methods section (FIG. 7).
An increase in the Runx2 gene expression after 24 hours of culture (FIG. 8a) was observed by using Quantitative Real Time Polymerase Chain Reaction as described in the Methods section.

[5] = tested on: hMSCs; assay: Alkaline phosphatase activity of hMSCs on peptide-coupled type-I collagen sponge; assay type: cell-based, human; details: 1 week of culture on type-I collagen sponge
Source text: We observed an increase in the ALP activity after 1 week of culture on type-I collagen sponge coupled with GFR-binding compounds as defined herein (SEQ ID NO: 19) (FIG. 8b).

[6] = tested on: hMSCs; assay: Chondrocyte differentiation of hMSCs (Sox9, Aggrecan); assay type: cell-based, human; details: 96 hours of culture
Method: as §1
Total RNA was extracted by using the RNeasy Mini Kit (Qiagen) and […] RNA was used for cDNA synthesis with AMV kit (Invitrogen®) according to the manufacturer' instructions. Semi-quantitative reverse transcriptase-polymerase chain reaction (RT-PCR) was performed with Taq DNA Polymerase (Invitrogen®) in a thermocycler (Bio-Rad®). The cDNA input was normalized to […] (HPRT). The PCR products were analyzed on 2% agarose gels. For the Aggrecan gene, the PCR bands were densitometrically quantified by using the BioCapt software (Vilber). Values were normalized to HPRT, and results were reported as relative gene expression.
hMSCs were cultured on with and without GFR-binding compounds as defined herein (SEQ ID NO: 23 and 24). […]

[7] = tested on: Hair Follicle Stem Cells; assay: Loss of quiescence and activation of hair follicle stem cells (Sox2, BMP-6); assay type: cell-based, Mouse
Method: Isolated Hair Follicle Stem Cells were cultured with and without GFR-binding compounds as defined herein (SEQ ID NO: 29 and 30). An increase in the Sox2 protein expression was observed illustrating the activation of these stem cells (FIG. 13a). In parallel, a decrease in the BMP-6 release in the cell culture medium was observed (FIG. 13b).

[8] = tested on: Neurons; assay: Neuron growth (dendrite growth, GAP43 Q-PCR); assay type: cell-based
Method: as §3
Neurons were cultured with and without GFR-binding compounds as defined herein (SEQ ID NO: 38). […] To further confirm this, the expression of the Growth Associated Protein 43 (GAP43) gene was verified for neuron cells cultured with neurogenic peptides (SEQ ID NO: 38).

Substance: 1602 (AAAAAAAAADENEKVVRVPSTSSVPAEESNITVQIMDDSSNVI; also: cyclic, closure not given here) [compound 1602]
STRO-1 Expression (%) after 48 h [1]: 42%

Substance: 1603 (GGGGGGGGGFDNDENVVAASKASSVPQRLRSVKVAKVFDNDENVV; also: cyclic, closure not given here) [compound 1603]
STRO-1 Expression (%) after 48 h [1]: 34%

Substance: 1604 (AAAAAAAAADAANNVVKIPKASSTQVRLRSVKTAKVDAANNVV; also: cyclic, closure not given here) [compound 1604]
STRO-1 Expression (%) after 48 h [1]: 35%

Substance: 1605 (AAAAAAAAADENEKVVAASKASSVPEKMRPVQTRKIDDSSNVI; also: cyclic, closure not given here) [compound 1605]
STRO-1 Expression (%) after 48 h [1]: 30%

Substance: 1606 (GGGGGGGGGFDNDENVVGIPEPSSAPVDMRPVQIRKIFDNDENVV; also: cyclic, closure not given here) [compound 1606]
STRO-1 Expression (%) after 48 h [1]: 43%

Substance: SEQ ID NO: 9: inducing peptide, cyclic GFR-binding compound of the sequence listing; mixed with apatite ceramics; sequence not printed (WWFWGGGSAISTLYLIGKTPGGGGGG; also: cyclic, ring type and places not given here)
release of peptides over time [2]: no significant release of peptides was observed over time

Substance: SEQ ID NO: 10: inducing peptide, cyclic GFR-binding compound of the sequence listing; mixed with type-I collagen sponge; sequence not printed (GTPGPGGGSAISTLYLIGKTPGGGGGG; also: cyclic, closure not given here)
release of peptides over time [3]: no significant release of peptides was observed over time

ALP activity [5]: increase
Substance: SEQ ID NO: 19: osteogenic cyclic GFR-binding compound of the sequence listing; sequence not printed (WWFWGGGSAISTLYLDEYDKGGGGGG; also: cyclic, closure not given here)
differentiation into mature osteoblasts [4]: differentiated into mature osteoblasts | production of extracellular matrix proteins such as Osteopontin (OPN) [4]: produced extensive amounts of extracellular matrix proteins such as Osteopontin (OPN)

Substance: SEQ ID NO: 20: osteogenic cyclic GFR-binding compound of the sequence listing; sequence not printed (GTPGPSAISTLYLGGGGGGG; also: cyclic, ring type and places not given here)
differentiation into mature osteoblasts [4]: differentiated into mature osteoblasts | production of extracellular matrix proteins such as Osteopontin (OPN) [4]: produced extensive amounts of extracellular matrix proteins such as Osteopontin (OPN)

Substance: SEQ ID NO: 23: cyclic GFR-binding compound inducing cartilage regeneration; sequence not printed (VGRKPELEPLPIVYYVGRKPGGGGG; also: cyclic, ring type and places not given here)
expression of the Sox9 protein [6]: expression of the Sox9 protein was observed

Substance: SEQ ID NO: 24: cyclic GFR-binding compound inducing cartilage regeneration; sequence not printed (EPLPIVYYVGRTPKVGGGGGG; also: cyclic, ring type and places not given here)
expression of the Sox9 protein [6]: expression of the Sox9 protein was observed

Substance: SEQ ID NO: 29: cyclic GFR-binding compound activating hair follicle stem cells; sequence not printed (DENKNSSLSILFFDENKNGGGGGG; also: cyclic, ring type and places not given here)
BMP-6 release in the cell culture medium [7]: decrease | Sox2 protein expression [7]: increase

Substance: SEQ ID NO: 30: cyclic GFR-binding compound activating hair follicle stem cells; sequence not printed (DENEKSSLSILFFDENEKGGGGGG; also: cyclic, ring type and places not given here)
BMP-6 release in the cell culture medium [7]: decrease | Sox2 protein expression [7]: increase

Substance: SEQ ID NO: 38: neurogenic peptide, cyclic GFR-binding compound; sequence not printed (SPISILYIDAANNGGGGGG; also: cyclic, ring type and places not given here)
establishment of cell-cell contacts via dendrite growth ([8]; 6 hours of culture): rapid establishment of cell-cell contacts via dendrite growth | expression of the Growth Associated Protein 43 (GAP43) gene ([8]; 48 hours of culture, Q-PCR): high level of expression
